Measurements from paper PMC12116762, “Topobexin targets the Topoisomerase II ATPase domain for beta isoform-selective inhibition and anthracycline cardioprotection” (Nature Communications, 2025).
Where “and” joins values, the source holds several entries; their conditions need not be identical. Equal entries are not always repeated.

Experiments:
[1] = system: NVCM; assay: Live-cell microscopy and mitochondrial membrane staining of NVCM; type: cell-based, rat; settings: 10 µM + DAU 1.2 µM
Experimental: Micrographs were obtained using an Eclipse TS100 inverted epifluorescence microscope (Nikon Corporation, Tokyo, Japan) and NIS-Elements AR 2.20 software (Laboratory Imaging s.r.o., Prague, Czech Republic). After treatment and incubation time corresponding to cytotoxicity/protection experiments (3 h preincubation with topobexin (9) [10 µM], 3 h co-incubation with topobexin (9) [10 µM] + DAU [1.2 µM], 45 h drug-free medium) NVCM were stained with 0.5 μM JC-1 probe (Molecular Probes/Thermo Fisher Scientific, USA) for 30 min at 37 °C or combination of 0.2 μM MitoTracker Red CMXRos (Molecular Probes/Thermo Fisher Scientific, USA) for 30 min and Hoechst 33342 for 10 min at 37 °C and then washed with a buffer (1.2 mM MgSO4 · 7H2O, 116 mM NaCl, 5.3 mM KCl, 1.13 mM NaH2PO4 · H2O, 20 mM HEPES).

[2] = biological target: T1, TOP2B-DNA covalent complex (Homo sapiens, UniProt Q02880); assay: RADAR assay, etoposide-induced TOP2B-DNA covalent complex in HEK293F cells; type: cell-based; settings: for TOP2B spot intensity: independent replicates
T1 construct: endogenous in cells; host or cells: HEK293F
Experimental: (§1) HEK293F cells were plated at 3 × 10^5 cells per well and grown overnight. […] Upon removal of media, cells in each well were immediately lysed with 750 µL DNAzol (Molecular Research Center, Inc.) and the DNA was precipitated by addition of 375 µL of 100% ethanol. This step was then repeated to eliminate protein aggregates. Precipitate from each sample was pelleted via centrifugation at 4 °C and max speed for 5 min. The pellets were washed twice with buffer containing 20 mM Tris pH 7.5, 1 mM EDTA pH 8.0, 50 mM NaCl, 50% EtOH, and at the end of each wash, centrifugation at 4000 × g for 2 min was repeated to isolate the DNA pellets. The pellets were washed in 75% EtOH and then collected by centrifugation at 4 °C and max speed for 5 min. The supernatant was removed via pipetting, and the remaining pellets were air dried for 5 min before 50 µL 8 mM NaOH and 0.1% Tween-20 was added to each pellet. Once no visible precipitate remained, each mixture was supplemented with 5 µL of Benzonase buffer containing 500 mM Tris pH 8.0, 10 mM MgCl2, 1/1000 Roche complete protease inhibitor cocktail (Millipore Sigma) and 40 units Benzonase (Millipore Sigma) followed by 30 to 60 min incubation at 37 °C until the pellets were fully dissolved. The DNA content from each sample was quantified on a nanodrop, and 10 µg of DNA was diluted to a final volume of 200 µL in 8 mM NaOH and 0.1% Tween. The samples were applied over the Whatman Minifold I dot blot apparatus (Cytiva) and collected on a PVDF membrane (Thermo Fisher Scientific). The membrane was washed three times with 8 mM NaOH and 0.1% Tween-20 solution prior to removal and blocking with the same wash solution containing 1 mg/mL BSA. Western blotting was carried out on an iBind (Thermo Fisher Scientific) and TOP2 proteins were detected using isoform-specific antibody against full length TOP2A (1:250 dilution; HT2A21, Inspiralis) and TOP2B (1:500 dilution; 611493, BD Biosciences) and visualized with anti-rabbit (1:1000 dilution; 926-68071, LI-COR Bio) and anti-mouse (1:1000 dilution; 926-32210, LI-COR Bio) secondary antibodies in iBind running buffer. The blots were imaged on a LI-COR Odyssey Fc and analysed using ImageStudio. Each presented data point was obtained from distinct sample.

[3] = biological target: T2, TOP2B (Rattus norvegicus, UniProt A0A8I5Y7L4); assay: TOP2B protein levels in NVCM (Western blotting); type: cell-based; settings: for TOP2B protein level: independent replicates
T2 construct: endogenous in cells; host or cells: primary neonatal Wistar rat ventricular cardiomyocytes (NVCM)
Experimental: TOP2B and γH2AX levels in NVCM were determined as follows. After incubation, 4 × 10^5 rat neonatal cardiomyocytes were lysed with 75 µL of 2% SDS in 0.1 M Tris (pH 7.4) and boiled at 95 °C for 5 min. The protein content of each sample was determined by the BCA method and 10 μg of total protein were loaded onto a polyacrylamide gel (7.5% for TOP2B, 12% for γH2AX, Bio-Rad TGX stain-free gels). After approximately 75 min of electrophoresis (150 V, Bio-Rad Mini-PROTEAN Tetra Cell), the gels were transblotted onto nitrocellulose membranes using a semi-dry method in Transblot Turbo (Bio-Rad, USA). The next day, the membranes were blocked for 1 h in 5% skimmed milk powder in 0.05% TBS-T at room temperature (RT). For TOP2 analysis, membranes were incubated with rabbit anti-TOP2A/B (1:2,000, ab109524, Abcam, UK) in 1% BSA in PBS for 1 h at RT, washed 6 times for 5 min in 0.05% TBS-T and then incubated with HRP-labeled F(ab’)2 goat anti-rabbit IgG (1:10,000, ab6112, Abcam, UK) in 0.05% TBS-T for 1 h RT and washed again (6 × 5 min in 0.05% TBS-T). For γH2AX analysis, membranes were incubated with mouse anti-γH2AX (1:5,000; ab26350, Abcam, UK) in 5% BSA in PBS for 1 h at RT, washed with 0.05% PBS-T for 6 × 5 min, incubated with HRP-conjugated anti-mouse IgG (1:40,000; A9044 Sigma Aldrich, USA) in 5% BSA in PBS for 1 h RT and finally washed with 0.05% PBS-T for 6 times 5 min. Target proteins were visualized using a chemiluminescent detection substrate (Clarity Western ECL Substrate, Bio-Rad, USA) and a Gel Doc EZ with Image Lab software (Bio-Rad, USA). Full, uncropped images of all blots present in the manuscript figures are included in the source data file.
Densitometric quantification was performed using Image Lab software (Bio-Rad). Stain-free technology was used to visualize the total protein on the gel and normalize the total protein amount in each line. Each presented data point was obtained from distinct sample.

[4] = biological target: T3, TOP2A-DNA covalent complex (Homo sapiens, UniProt P11388); assay: RADAR assay, etoposide-induced TOP2A-DNA covalent complex in HEK293F cells; type: cell-based; settings: for TOP2A spot intensity: independent replicates
T3 construct: endogenous in cells; host or cells: HEK293F
Experimental: as §1

[5] = system: HL-60 cell line; design: method as in previously determined; settings: ref previously determined, read-out: IC50, antiproliferative; cited from earlier work
[6] = Cmpd 9 10 μM, etoposide 0, background subtracted

T3 sequence (P11388 whole entry, one chain of several): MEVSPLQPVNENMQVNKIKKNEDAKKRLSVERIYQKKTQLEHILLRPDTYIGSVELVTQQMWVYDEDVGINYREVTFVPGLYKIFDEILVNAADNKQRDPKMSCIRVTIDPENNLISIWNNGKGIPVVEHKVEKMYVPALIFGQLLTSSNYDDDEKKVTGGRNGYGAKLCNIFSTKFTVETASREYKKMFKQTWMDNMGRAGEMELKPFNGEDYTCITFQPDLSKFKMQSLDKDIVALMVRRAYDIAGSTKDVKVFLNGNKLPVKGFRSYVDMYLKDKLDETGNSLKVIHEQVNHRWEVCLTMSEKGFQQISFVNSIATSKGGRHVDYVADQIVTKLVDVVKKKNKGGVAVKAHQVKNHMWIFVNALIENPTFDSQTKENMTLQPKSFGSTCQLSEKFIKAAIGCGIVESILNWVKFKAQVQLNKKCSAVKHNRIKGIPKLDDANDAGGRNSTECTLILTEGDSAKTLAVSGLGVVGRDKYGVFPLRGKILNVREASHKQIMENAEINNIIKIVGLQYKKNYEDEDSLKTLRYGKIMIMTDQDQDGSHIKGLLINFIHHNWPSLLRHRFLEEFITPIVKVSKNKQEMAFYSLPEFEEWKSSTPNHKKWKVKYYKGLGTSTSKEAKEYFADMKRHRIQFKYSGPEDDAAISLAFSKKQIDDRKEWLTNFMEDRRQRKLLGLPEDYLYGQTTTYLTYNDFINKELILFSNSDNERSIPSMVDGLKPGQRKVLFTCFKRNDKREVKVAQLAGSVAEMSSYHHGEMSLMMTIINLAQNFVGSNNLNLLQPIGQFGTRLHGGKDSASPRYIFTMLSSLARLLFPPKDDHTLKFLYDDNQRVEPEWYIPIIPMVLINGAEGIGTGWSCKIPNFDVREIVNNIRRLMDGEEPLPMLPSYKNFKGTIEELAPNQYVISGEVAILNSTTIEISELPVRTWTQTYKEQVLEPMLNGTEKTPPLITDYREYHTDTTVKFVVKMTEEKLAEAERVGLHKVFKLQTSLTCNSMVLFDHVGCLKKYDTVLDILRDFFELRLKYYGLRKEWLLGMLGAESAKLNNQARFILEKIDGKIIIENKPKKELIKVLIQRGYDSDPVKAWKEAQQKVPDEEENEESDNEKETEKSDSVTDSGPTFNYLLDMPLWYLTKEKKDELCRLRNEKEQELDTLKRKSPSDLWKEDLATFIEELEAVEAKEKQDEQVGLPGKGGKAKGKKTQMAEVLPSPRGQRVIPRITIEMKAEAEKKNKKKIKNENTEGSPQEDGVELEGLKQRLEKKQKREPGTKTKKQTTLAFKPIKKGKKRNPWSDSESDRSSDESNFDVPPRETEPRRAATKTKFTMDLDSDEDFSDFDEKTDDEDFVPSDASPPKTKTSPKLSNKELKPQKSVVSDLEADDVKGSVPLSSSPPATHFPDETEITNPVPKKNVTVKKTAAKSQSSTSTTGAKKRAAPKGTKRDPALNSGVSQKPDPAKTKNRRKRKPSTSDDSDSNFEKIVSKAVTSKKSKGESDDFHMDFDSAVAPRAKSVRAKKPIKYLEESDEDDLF
T2 sequence (A0A8I5Y7L4 1-1614): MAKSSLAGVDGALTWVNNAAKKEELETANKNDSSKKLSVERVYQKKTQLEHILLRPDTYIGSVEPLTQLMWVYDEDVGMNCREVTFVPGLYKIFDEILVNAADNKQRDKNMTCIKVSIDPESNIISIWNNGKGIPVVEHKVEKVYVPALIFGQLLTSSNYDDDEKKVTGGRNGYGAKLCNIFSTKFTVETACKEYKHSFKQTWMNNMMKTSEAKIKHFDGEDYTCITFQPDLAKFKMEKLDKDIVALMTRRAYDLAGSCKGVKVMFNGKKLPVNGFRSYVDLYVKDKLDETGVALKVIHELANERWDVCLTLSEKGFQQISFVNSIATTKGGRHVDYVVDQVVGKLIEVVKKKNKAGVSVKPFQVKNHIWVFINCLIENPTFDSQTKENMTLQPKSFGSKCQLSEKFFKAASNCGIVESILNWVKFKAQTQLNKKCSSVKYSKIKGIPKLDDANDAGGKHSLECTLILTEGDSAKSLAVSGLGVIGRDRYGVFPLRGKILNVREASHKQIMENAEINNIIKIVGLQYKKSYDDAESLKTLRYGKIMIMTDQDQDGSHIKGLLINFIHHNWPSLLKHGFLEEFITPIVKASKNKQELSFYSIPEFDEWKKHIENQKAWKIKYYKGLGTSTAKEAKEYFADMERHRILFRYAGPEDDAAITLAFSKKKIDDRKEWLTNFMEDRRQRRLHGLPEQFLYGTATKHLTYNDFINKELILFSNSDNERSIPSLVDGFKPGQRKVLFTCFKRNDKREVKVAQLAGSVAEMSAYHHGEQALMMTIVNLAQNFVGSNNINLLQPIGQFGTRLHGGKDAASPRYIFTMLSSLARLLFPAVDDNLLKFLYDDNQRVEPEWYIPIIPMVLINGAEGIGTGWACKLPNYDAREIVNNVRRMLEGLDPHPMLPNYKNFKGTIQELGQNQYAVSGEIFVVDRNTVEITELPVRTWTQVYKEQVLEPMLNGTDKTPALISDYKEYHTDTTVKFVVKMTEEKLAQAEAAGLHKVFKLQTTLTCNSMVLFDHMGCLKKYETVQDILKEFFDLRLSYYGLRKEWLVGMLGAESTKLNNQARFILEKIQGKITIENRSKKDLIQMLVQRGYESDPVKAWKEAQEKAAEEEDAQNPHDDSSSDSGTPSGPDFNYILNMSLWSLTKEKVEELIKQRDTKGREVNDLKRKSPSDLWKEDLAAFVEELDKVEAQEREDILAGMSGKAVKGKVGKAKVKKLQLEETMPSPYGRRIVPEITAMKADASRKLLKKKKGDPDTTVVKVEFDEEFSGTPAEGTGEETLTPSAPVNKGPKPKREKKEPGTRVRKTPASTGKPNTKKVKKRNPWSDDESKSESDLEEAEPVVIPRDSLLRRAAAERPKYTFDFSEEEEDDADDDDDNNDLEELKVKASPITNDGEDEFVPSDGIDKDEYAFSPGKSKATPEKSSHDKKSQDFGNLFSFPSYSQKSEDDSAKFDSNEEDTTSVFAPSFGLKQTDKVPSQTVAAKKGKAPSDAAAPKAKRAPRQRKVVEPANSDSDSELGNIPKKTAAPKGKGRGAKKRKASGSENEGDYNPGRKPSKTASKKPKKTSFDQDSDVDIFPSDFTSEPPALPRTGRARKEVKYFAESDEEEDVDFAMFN
T1 sequence (Q02880 2-1626 limits assumed, one chain of several): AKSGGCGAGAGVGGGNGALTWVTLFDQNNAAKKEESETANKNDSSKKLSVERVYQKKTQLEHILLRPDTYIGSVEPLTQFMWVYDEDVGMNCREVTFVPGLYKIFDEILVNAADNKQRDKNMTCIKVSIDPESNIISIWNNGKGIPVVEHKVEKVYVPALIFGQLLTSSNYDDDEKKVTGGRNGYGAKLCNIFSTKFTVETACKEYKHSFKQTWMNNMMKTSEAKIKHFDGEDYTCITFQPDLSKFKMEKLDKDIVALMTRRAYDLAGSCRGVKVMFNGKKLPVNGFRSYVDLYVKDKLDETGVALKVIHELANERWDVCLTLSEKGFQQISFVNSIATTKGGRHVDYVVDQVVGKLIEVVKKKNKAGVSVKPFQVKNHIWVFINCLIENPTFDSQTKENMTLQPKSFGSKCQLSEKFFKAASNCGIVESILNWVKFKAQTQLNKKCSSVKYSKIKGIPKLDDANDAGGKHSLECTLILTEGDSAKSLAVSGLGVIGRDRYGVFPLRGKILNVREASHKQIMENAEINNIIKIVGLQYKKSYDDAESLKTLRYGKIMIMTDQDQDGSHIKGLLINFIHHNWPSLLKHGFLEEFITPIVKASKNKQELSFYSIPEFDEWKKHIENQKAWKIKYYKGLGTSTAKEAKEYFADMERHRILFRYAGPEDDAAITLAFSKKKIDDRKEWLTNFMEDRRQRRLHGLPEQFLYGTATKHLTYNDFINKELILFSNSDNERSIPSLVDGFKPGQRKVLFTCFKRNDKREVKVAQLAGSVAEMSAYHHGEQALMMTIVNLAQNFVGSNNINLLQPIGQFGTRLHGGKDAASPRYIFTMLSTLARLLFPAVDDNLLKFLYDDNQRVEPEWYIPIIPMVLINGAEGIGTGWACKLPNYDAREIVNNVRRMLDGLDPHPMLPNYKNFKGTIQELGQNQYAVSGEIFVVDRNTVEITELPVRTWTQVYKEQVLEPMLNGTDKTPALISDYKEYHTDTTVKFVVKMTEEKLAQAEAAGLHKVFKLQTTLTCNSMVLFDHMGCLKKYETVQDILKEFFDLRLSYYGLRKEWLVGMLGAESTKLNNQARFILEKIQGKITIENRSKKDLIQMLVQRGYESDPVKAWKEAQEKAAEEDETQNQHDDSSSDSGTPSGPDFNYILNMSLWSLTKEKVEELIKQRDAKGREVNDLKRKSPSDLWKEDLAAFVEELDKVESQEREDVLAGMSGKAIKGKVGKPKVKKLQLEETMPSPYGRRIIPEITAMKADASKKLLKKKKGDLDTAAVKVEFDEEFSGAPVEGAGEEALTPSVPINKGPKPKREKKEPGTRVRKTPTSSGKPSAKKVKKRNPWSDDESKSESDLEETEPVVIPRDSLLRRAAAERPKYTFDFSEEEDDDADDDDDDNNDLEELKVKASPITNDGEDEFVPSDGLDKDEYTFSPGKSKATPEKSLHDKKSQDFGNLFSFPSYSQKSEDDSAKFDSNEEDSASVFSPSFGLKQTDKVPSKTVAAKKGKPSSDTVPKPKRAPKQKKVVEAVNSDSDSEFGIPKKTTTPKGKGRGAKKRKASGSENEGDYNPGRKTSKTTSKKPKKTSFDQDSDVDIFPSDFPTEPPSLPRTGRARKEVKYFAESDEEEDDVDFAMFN

Compound | DAU-induced changes in cardiomyocyte morphology and mitochondria [1] | TOP2B spot intensity ([2]; Cmpd 9 0.1 μM + etoposide 5 μM) | TOP2B spot intensity ([2]; Cmpd 9 1 μM + etoposide 5 μM) | TOP2B spot intensity ([2]; Cmpd 9 10 μM + etoposide 5 μM) | TOP2B spot intensity [2, 6] | concentration significantly reducing TOP2B-DNA CC ([2]; etoposide-induced, HEK293F) | TOP2B protein levels in NVCM [3] | TOP2B protein level, mean ([3]; 0.1 µM, ctr mean 100) | TOP2B protein level ([3]; 0.1 µM, ctr mean 100) | TOP2B protein level, mean ([3]; 1 µM) | TOP2B protein level ([3]; 1 μM) | TOP2B protein level, mean ([3]; 10 µM) | TOP2B protein level ([3]; 10 µM) | TOP2A spot intensity ([4]; Cmpd 9 0.1 μM + etoposide 5 μM) | TOP2A spot intensity ([4]; Cmpd 9 1 μM + etoposide 5 μM) | TOP2A spot intensity ([4]; Cmpd 9 10 μM + etoposide 5 μM) | TOP2A spot intensity [4, 6] | concentration significantly reducing TOP2A-DNA CC ([4]; etoposide-induced, HEK293F) | IC50 [5]
CCCc1cc(=O)oc2c(C(=O)N3CCCc4ccccc43)c(OCCN3CCN(C)CC3)ccc12 [topobexin (9)] | reduced the distinct changes in cardiomyocyte morphology induced by DAU | 104.7 and 108 and 35.48 and 44.18 and 86.39 | 30.03 and 46.96 and 8.418 and 33.86 and 32.47 | 9.497 and 0.7143 and 3.351 and 13.57 and 7.34 | 0.7839 and 1.705 and 2.435 and 8.291 and 6.459 | 1 µM | potent and concentration-dependent depletion | 23.4137 | 11.507 and 22.9519 and 35.7822 | 1.8687 | 0.3883 and 3.978 and 1.24 | 0.6098 | 0.07384 and 0.9813 and 0.7742 | 56.77 and 79.14 and 121.2 and 109.4 and 138 | 31.84 and 81.31 and 94.03 and 77.86 and 117.3 | 13.9 and 41.59 and 30.46 and 21.29 and 12.52 | 0.2099 and 13.4 and 11.83 and 3.115 and 7.885 | 10 µM | –
COc1cccc2c1C(=O)c1c(O)c3c(c(O)c1C2=O)C[C@@](O)(C(C)=O)C[C@@H]3O[C@H]1C[C@H](N)[C@H](O)[C@H](C)O1 [DAU, daunorubicin, reference compound] | – | – | – | – | – | – | – | – | – | – | – | – | – | – | – | – | – | – | 15 nM
